Source: patent US12514832B2, “Methods for using low-dose colchicine after myocardial infarction” (INSTITUT DE CARDIOLOGIE DE MONTREAL, priority 2019, dated 2026)
Where two headings read alike, the source gives them in different places.

Columns and labels:
[1] = system: high-sensitivity C-reactive protein; experiment: COLCOT biomarker substudy: high-sensitivity C-reactive protein; format: in vivo, human
Description: Additional prespecified exploratory end points included the change from baseline to 6 months in the high-sensitivity C-reactive protein level and the change from baseline to 12 months in the white-cell count. The C-reactive protein biomarker substudy was implemented after a protocol amendment and was optional for sites and for patients; 34 sites chose to participate in this substudy.
The analysis of the primary end point was repeated in the per-protocol population (i.e., patients without major protocol deviations). Secondary and exploratory end points expressed as time to event were analyzed similarly. The changes from baseline to follow-up were analyzed with the use of an analysis of covariance model with adjustment for baseline value, and estimates of treatment effect are presented with 95% confidence intervals.
High-sensitivity C-reactive protein was measured in a subgroup of only 207 patients at the time of randomization and 6 months later, and the median concentration at trial entry was 4.28 mg per liter. […] The adjusted geometric mean percent changes in the high-sensitivity C-reactive protein level at 6 months after myocardial infarction were −70.0% in the colchicine group and −66.6% in the placebo group, and the placebo-adjusted geometric mean percent change was −10.1% percentage points in the colchicine group (95% CI, −28.6 to 13.4) (Table 8).
In Table 8, the placebo-adjusted geometric mean percent change was obtained by exponentiating the adjusted mean difference between groups from the analysis of covariance model (based on log-transformed data), then subtracting 1 and multiplying by 100.
In addition, the C-reactive protein biomarker sub-study was implemented following a protocol amendment and was optional for sites and for patients; 34 sites accepted to participate in this substudy. There were 213 and 208 patients who provided blood samples at baseline and 6 months, respectively. Paired baseline and 6-month hs-CRP values were available in 207 patients. Clinically available white blood cell counts were obtained from 2598 patients at baseline and 1998 patients at 12 months, and paired baseline and 12-month values were available in 1972 patients. Statistical analysis was conducted on the patients who provided both baseline and follow-up data and as these were exploratory analyses, no missing data was imputed.

[2] = system: rs6916345 (LINC01108/JARID2, chromosome 6); rs10128117 (SEPHS1, chromosome 10); settings: for HR, gastrointestinal disorders / coef, gastrointestinal disorders / Coefficient, genetic association with gastrointestinal disorders / HR (hazard ratio), genetic association with gastrointestinal disorders: colchicine treatment arm
[3] = colchicine arm, males + females, on-treatment pgx population
[4] = rs535968 effect allele C vs T, males + females
[5] = rs615497 effect allele G vs A, males + females
[6] = rs825610 effect allele C vs T, males + females
[7] = rs2253619 chr 10, EA T vs NEA C
[8] = rs2253619 effect allele T vs C, males + females
[9] = rs2476986 effect allele T vs G, males + females
[10] = rs2783648 effect allele A vs T, males + females
[11] = rs7894075 effect allele C vs A, males + females
[12] = rs7901525 effect allele A vs C, males + females

For `COc1cc2c(c(OC)c1OC)-c1ccc(OC)c(=O)cc1[C@@H](NC(C)=O)CC2` [Colchicine, colchicine], the “Hs-C reactive protein, geometric mean” value ([1]; at 6 months, N=99) was 1.37 mg/L, the “Hs-C reactive protein, geometric mean” value ([1]; at Randomization (baseline), N=99) was 4.27 mg/L and the “Hs-C reactive protein, Adjusted GM percent change” value ([1]; baseline to 6 months, N=99) was −70.0%. For the same compound, the “Hs-C reactive protein, Placebo-adjusted GM percent change” value ([1]; baseline to 6 months, colchicine vs placebo) was −10.1%, the “reduction in the C-reactive protein level” value ([1]; over the first 6 months after myocardial infarction, in both trial groups, difference between groups not significant) was over 65% and the “Gastrointestinal disorders, hr per effect allele, rs857414 (G vs T)” value [2, 3] was 0.6. The “Gastrointestinal disorders, hr per effect allele, rs2327827 (G vs A)” value [2, 3] was 0.5, the “Gastrointestinal disorders, hr per effect allele, rs4620126 (G vs A)” value [2, 3] was 0.6 and the “Gastrointestinal disorders, hr per effect allele, rs6459368 (A vs G)” value [2, 3] was 0.5. The “Gastrointestinal disorders, hr per effect allele, rs6903188 (G vs A)” value [2, 3] was 0.6, the “Gastrointestinal disorders, hr per effect allele, rs6918045 (T vs C)” value [2, 3] was 0.6 and the “Gastrointestinal disorders, hr per effect allele, rs6920905 (C vs T)” value [2, 3] was 0.5. For the same compound, the “Gastrointestinal disorders, hr per effect allele, rs7747013 (G vs A)” value [2, 3] was 0.5, the “Gastrointestinal disorders, hr per effect allele, rs7751771 (C vs T)” value [2, 3] was 0.5 and the “Gastrointestinal disorders, hr per effect allele, rs7764937 (C vs G)” value [2, 3] was 0.5. For the same compound, the “Gastrointestinal disorders, hr per effect allele, rs9349955 (T vs C)” value [2, 3] was 0.5, the “Gastrointestinal disorders, hr per effect allele, rs9358042 (T vs C)” value [2, 3] was 0.6 and the “Gastrointestinal disorders, hr per effect allele, rs9358044 (T vs A)” value [2, 3] was 0.5. For the same compound, the “Gastrointestinal disorders, hr per effect allele, rs9370772 (T vs C)” value [2, 3] was 0.6, the “Gastrointestinal disorders, hr per effect allele, rs9382993 (C vs T)” value [2, 3] was 0.5 and the “Gastrointestinal disorders, hr per effect allele, rs9464702 (G vs A)” value [2, 3] was 0.6. For the same compound, the “Gastrointestinal disorders, hr per effect allele, rs9476615 (T vs C)” value [2, 3] was 0.6, the “Gastrointestinal disorders, hr per effect allele, rs9476616 (G vs C)” value [2, 3] was 0.5 and the “Gastrointestinal disorders, hr per effect allele, rs12210439 (A vs G)” value [2, 3] was 0.6. The “Gastrointestinal disorders, hr per effect allele, rs70993041 (TAA vs T)” value [2, 3] was 0.5, the “times more likely to have reported gastrointestinal disorders with colchicine than with placebo” value ([2]; genotype A/A at rs6916345) was 2.4 times and the “less likely to have reported gastrointestinal disorders with colchicine than with placebo” value ([2]; genotype G/G at rs6916345) was 57%. For the same compound, the “times more likely to have reported gastrointestinal disorders with colchicine than with placebo” value ([2]; genotype T/A at rs10128117) was 3.7 times, the “HR, gastrointestinal disorders” value [2, 4] was 2.3 and the “coef, gastrointestinal disorders” value [2, 4] was 0.8496. The “HR, gastrointestinal disorders” value [2, 5] was 2.4, the “coef, gastrointestinal disorders” value [2, 5] was 0.8683 and the “HR, gastrointestinal disorders” value [2, 6] was 2.4. For the same compound, the “coef, gastrointestinal disorders” value [2, 6] was 0.8604, the “Coefficient, genetic association with gastrointestinal disorders” value (“Coefficient, genetic association” below) [2, 7] was 0.921 and the “HR (hazard ratio), genetic association with gastrointestinal disorders” value (“HR (hazard ratio), genetic association” for short) [2, 7] was 2.51. The “HR, gastrointestinal disorders” value [2, 8] was 2.5, the “coef, gastrointestinal disorders” value [2, 8] was 0.9205 and the “Coefficient, genetic association” value ([2]; rs2327827 chr 6, EA G vs NEA A) was −0.620. The “HR (hazard ratio), genetic association” value ([2]; rs2327827 chr 6, EA G vs NEA A) was 0.54, the “HR, gastrointestinal disorders” value [2, 9] was 2.4 and the “coef, gastrointestinal disorders” value [2, 9] was 0.8717. The “HR, gastrointestinal disorders” value [2, 10] was 2.4, the “coef, gastrointestinal disorders” value [2, 10] was 0.8625 and the “Coefficient, genetic association” value ([2]; rs6459368 chr 6, EA A vs NEA G) was −0.602. The “HR (hazard ratio), genetic association” value ([2]; rs6459368 chr 6, EA A vs NEA G) was 0.55, the “Coefficient, genetic association” value ([2]; rs6903188 chr 6, EA G vs NEA A) was −0.598 and the “HR (hazard ratio), genetic association” value ([2]; rs6903188 chr 6, EA G vs NEA A) was 0.55. The “Coefficient, genetic association” value ([2]; rs6916345 chr 6, EA G vs NEA A) was −0.639, the “HR (hazard ratio), genetic association” value ([2]; rs6916345 chr 6, EA G vs NEA A) was 0.53 and the “Coefficient, genetic association” value ([2]; rs6918045 chr 6, EA T vs NEA C) was −0.598. For the same compound, the “HR (hazard ratio), genetic association” value ([2]; rs6918045 chr 6, EA T vs NEA C) was 0.55, the “Coefficient, genetic association” value ([2]; rs6920905 chr 6, EA C vs NEA T) was −0.628 and the “HR (hazard ratio), genetic association” value ([2]; rs6920905 chr 6, EA C vs NEA T) was 0.53. The “Coefficient, genetic association” value ([2]; rs7747013 chr 6, EA G vs NEA A) was −0.600, the “HR (hazard ratio), genetic association” value ([2]; rs7747013 chr 6, EA G vs NEA A) was 0.55 and the “Coefficient, genetic association” value ([2]; rs7751771 chr 6, EA C vs NEA T) was −0.598. The “HR (hazard ratio), genetic association” value ([2]; rs7751771 chr 6, EA C vs NEA T) was 0.55, the “Coefficient, genetic association” value ([2]; rs7764937 chr 6, EA C vs NEA G) was −0.599 and the “HR (hazard ratio), genetic association” value ([2]; rs7764937 chr 6, EA C vs NEA G) was 0.55. For the same compound, the “HR, gastrointestinal disorders” value [2, 11] was 2.4, the “coef, gastrointestinal disorders” value [2, 11] was 0.8903 and the “HR, gastrointestinal disorders” value [2, 12] was 2.4. The “coef, gastrointestinal disorders” value [2, 12] was 0.8865.
